Results on 2 compounds are retold here after patent publication US20250188091A1, “PYRIDONE COMPOUND HAVING INTEGRASE INHIBITORY ACTIVITY AND PHARMACEUTICAL USE THEREOF” (priority 2021, published 2025).

The subject of data set [1] is HIV-1 subtype D UG/92/001. Kind of data set: Inhibitory activity against clinical HIV-1 strain UG/92/001 in PBMC. Type of data set: cell-based. Conditions: for EC50: read-out: hPBMC/HIV-1 EC50; for EC90: read-out: hPBMC/HIV-1 EC90. Here is the method: (§1) Preparation of virus: Clinical HIV-1 virus strains (Table 3) were obtained from the US NIH AIDS Research and Reference Reagent Library. PBMC were extracted from three fresh blood samples that were HIV and HBV seronegative, mixed and cultured, and PHA-P (phytohemagglutinin) was added to stimulate activation. The cells and virus were incubated at 37° C./5% CO2, and the cell culture supernatant after infection was collected and stored frozen at −80° C. Each viral titer was titrated in pooled PBMCs from three donors.
(§2) Assay of antiviral activity of compounds: Frozen PBMCs were resuspended in fresh culture medium (1×10^6 cells/mL), and added to a round-bottom 96-well plate ([…]). 100 μl of culture medium containing 2 times the final concentration of the compound was added to each well, and then 50 μL of virus solution was added (the final infection dose was MOI=0.002). After 7 days of culture, the reverse transcriptase activity in the supernatant was determined to evaluate HIV-1 replication. At the same time, a 96-well culture plate with only compounds and cells was prepared for the assay of compound cytotoxicity.

Data set [2] has as its system HIV-1 integrase R263K pseudovirus. Kind of data set: Pseudovirus-based assay of anti-HIV-1 activity, R263K strain. Type of data set: cell-based. The settings on record: HEK-293T, 72 h. Here is the method: (§3) The inhibitory activity against pseudoviruses containing common clinical mutation sites of HIV-1 integrase (G140S/Q148R, Q148R/N155H, E138K, Q148H, R263K and Y143R/Q148H) was determined.
(§4) Preparation of pseudovirus: Using the lentiviral plasmid pNL4-3-Luc-RE (HedgehogBio) as the backbone, an integrase point mutation plasmid was constructed. HEK293T cells (ATCC) were seeded in a 6-well plate at 5×10^5 cells per well. After 24 hours, when the cell density reached 60% to 80%, transfection was performed. pNL4-3-Luc-R-E- or pNL4-3-Luc-R-E--IN-mutant plasmid and lentivirus packaging plasmid pMD2.G (Beijing Zoman Bio) were added to the transfection reagent in a certain proportion. Cell transfection was performed according to the instructions of transfection reagent PEI25K (Maokang Biotechnology). After 48 hours, the supernatant was collected, centrifuged at 3000 rpm for 5 minutes, filtered with a 0.45 μm microporous membrane, aliquoted, and stored at −80° C. for later use. In HEK293T cells, the pseudovirus titer was determined based on luciferase activity.
(§5) Determination of antiviral activity of compounds: In a 96-well V-bottom plate, the compound to be tested was diluted with DMSO semi-logarithmically, and a compound solution 4 times the final concentration was prepared for later use. According to the results of different virus titrations, the virus was diluted with complete culture medium for later use. HEK293T cells were digested with trypsin to obtain a cell suspension of 2×10^5/mL. 50 µl of compound diluent, 50 µl of virus diluent and 100 µl of cell suspension were added successively to a 96-well flat-bottomed plate. The final concentration of the compound was 1000 nM to 0.1 nM. The 96-well plate was incubated in a 37° C., 5% CO2 incubator. After 72 hours, 100 µL of culture supernatant was pipetted out carefully from each well of the 96-well plate, 25 µL of Steady-Glo detection reagent (Promega, Cat #E2550) was added to each well in the dark, and then assayed on a machine (Tecan, Type #Spark).

Data set [3] has as its system WT (wild type) pseudovirus. Briefly: Pseudovirus-based assay of anti-HIV-1 activity, WT strain. The settings on record: HEK-293T, 72 h. Type of data set: cell-based. Here is the method:
as §3, §4, §5

Data set [4] is described as follows: Test of cytotoxicity of the compound (MT-4 cells, XTT). Type of data set: cell-based. The settings on record: human. As for the experimental part: 1) Test of cytotoxicity of the compound: The test compound was evaluated using a starting concentration of 100 nM and five serial half-log dilutions. Each compound was present in the test medium at a concentration 2 folds of the final desired test concentration. The compound was diluted to 1 mM in DMSO. The compound was then diluted to 200 nM in a drug dilution tube containing 998 μL of test medium (adding 2 μL of 1 mM stock). […] of the 200 nM solution was transferred into 680 μL of the test medium (half-log dilution), and a total of five serial dilutions were carried out. 100 microliters (100 μL) of the solution of each concentration was added to duplicate wells for cytotoxicity evaluation, and each concentration was added to one well for colorimetric evaluation.
Cell culture: MT-4 cells were passaged in a T-75 flask before use in the antiviral assay. On the day before the assay, cells were passaged in aliquots at a 1:2 ratio to ensure that they were in the exponential growth phase at the time of infection. Total cells and viable cells were quantified using a hemocytometer and trypan blue dye. The proportion of viable cells used for the assay was greater than 95%. The cells were resuspended in tissue culture medium at 5×10^4 cells per milliliter, and the resulting suspension was added to a drug-containing microtiter plate in a volume of 50 μL.
Evaluation of the efficacy and toxicity of the compound with XTT: After culturing for six days in a 37° C., 5% CO2 incubator, tetrazolium dye XTT (2,3-bis(2-methoxy-4-nitro-5-sulfophenyl)-5-[(phenylamino)carbonyl]-2H-tetrazolium hydroxide) was added to the cell culture plate to conduct the test. The XTT solution was a 1 mg/ml RPMI1640 stock solution prepared on the same day. Phenazine methyl sulfate (PMS) solution at a concentration of 0.15 mg/ml was prepared in PBS, and stored in the dark at −20° C. XTT/PMS stock solution was prepared before use by adding 40 μl of PMS per milliliter of XTT solution. […] of XTT/PMS was added to each well of the plate, and the plate was re-incubated for 4 hours at 37° C. The plate was sealed with adhesive plate sealant, and gently shaked or inverted several times to mix the soluble formazan product. The absorbance was read at 450/650 nm.
(In general: Tetrazolium assays rely on reduction of a dye to a coloured formazan, in cell work by metabolically active cells.)

Data set [5] has as its system HIV-1 integrase G140S/Q148R pseudovirus. Kind of data set: Pseudovirus-based assay of anti-HIV-1 activity, G140S/Q148R strain. Type of data set: cell-based. Conditions: HEK-293T, 72 h. As for the experimental part: as §3, §4, §5
The subject of data set [6] is common clinical integrase mutant strains (G140S/Q148R, Q148R/N155H, E138K, Q148H, R263K and Y143R/Q148H). Kind of data set: Pseudovirus assay, common clinical integrase mutant strains (overall comparison). Type of data set: cell-based, HIV-1. The settings on record: R263K and Y143R/Q148H pseudoviruses. As for the experimental part: as §3, §4
Determination of antiviral activity of compounds: In a 96-well V-bottom plate, the compound to be tested was diluted with DMSO semi-logarithmically, and a compound solution 4 times the final concentration was prepared for later use. […]

For data set [7], the system named is HIV-1 clinical isolates (RW/92/009, MW/93/959, UG/92/001). Kind of data set: Clinical HIV-1 isolates in human PBMC (overall comparison). Type of data set: cell-based. The settings on record: RW/92/009, MW/93/959, UG/92/001 in human PBMC. Here is the method:
as §1, §2

Where [8] appears, read: Human immunodeficiency virus 1, 168 h, UG/92/001, human PBMC, 7 days, reverse transcriptase activity in supernatant.
Setting [9] is: Human immunodeficiency virus 1, PBMC, 168 h.

Where two headings read alike, the source gives them in different places.

A word on the CC50: it is the concentration at which the toxic effect on the cells reaches its halfway point. As for `C[C@H]1CO[C@@H]2Cn3cc(C(=O)NCc4ccc(F)cc4F)c(=O)c(O)c3C(=O)N12` [Cabotegravir, cabotegravir], the EC50 worked out at 0.46 nM in data set [1] (setting [8]), 4.9 nM in data set [2], 3 nM in data set [3] and 63.5 nM in data set [5]. In addition, the EC90 in data set [1] (setting [8]) was 2.94 nM; in data set [2], 58.8 nM; in data set [3] it was 21.8 nM; in data set [5] it was 301 nM. The CC50 at 6 days in data set [4] was above 100 nM.

Consider `O=C(NCc1ccc(F)cc1F)c1cn2c(c(O)c1=O)C(=O)N1[C@@H](CF)CO[C@@H]1C2` [Compound 2], for which the EC50 in data set [1] (setting [9]) amounted to 0.28 nM; in data set [2] it was 2.9 nM; in data set [3], 1.8 nM; in data set [5], 42.2 nM. In addition, the EC90 amounted to 1.28 nM in data set [1] (setting [9]), 25.1 nM in data set [2], 12.9 nM in data set [3] and 194 nM in data set [5]. Also, the “activity compared with cabotegravir” value in data set [6] is given as “better than that of cabotegravir with significant differences”; in data set [7], “more active than cabotegravir”. Also, the CC50 at 6 days in data set [4] is above 100 nM.
